Measurements published in patent publication US20230016424A1, “HYBRID AMIDE DERIVATIVES OF AMPHOTERICIN B” (The Board of Trustees of the University of Illinois, priority 2019, published 2023).

What follows are compounds tested on C. albicans SN250, C. albicans, C. krusei, C. glabrata, C. tropicalis, A. fumigatus 91, 1163, 1100 (assay: Average MIC over the tested strains). Details: Table 7, C16 amide AmB variants.
Type: cell-based

| Structure (SMILES) | MIC (Average Minimum Inhibition Concentration) |
| --- | --- |
| CC1C=CC=CC=CC=CC=CC=CC=CC(OC2OC(C)C(O)C(N)C2O)CC2OC(O)(CC(O)CC(O)C(O)CCC(O)CC(O)CC(=O)OC(C)C(C)C1O)CC(O)C2C(=O)NC1C(CO)OC(n2cnc3c(N)ncnc32)C1O (mixture of isomers) [EA] | 0.422 µM |
| CC1C=CC=CC=CC=CC=CC=CC=CC(OC2OC(C)C(O)C(N)C2O)CC2OC(O)(CC(O)CC(O)C(O)CCC(O)CC(O)CC(=O)OC(C)C(C)C1O)CC(O)C2C(=O)NC1CCCC1O (mixture of isomers) [EV] | 0.500 µM |
| CC1C=CC=CC=CC=CC=CC=CC=CC(OC2OC(C)C(O)C(N)C2O)CC2OC(O)(CC(O)CC(O)C(O)CCC(O)CC(O)CC(=O)OC(C)C(C)C1O)CC(O)C2C(=O)NC1C(O)OC(CO)C(O)C1O (mixture of isomers) [FK] | 0.211 µM |
| COC1OC(CO)C(O)C(NC(=O)C2C(O)CC3(O)CC(O)CC(O)C(O)CCC(O)CC(O)CC(=O)OC(C)C(C)C(O)C(C)C=CC=CC=CC=CC=CC=CC=CC(OC4OC(C)C(O)C(N)C4O)CC2O3)C1O (mixture of isomers) [FO] | 0.258 µM |
| CCC(O)CNC(=O)C1C(O)CC2(O)CC(O)CC(O)C(O)CCC(O)CC(O)CC(=O)OC(C)C(C)C(O)C(C)C=CC=CC=CC=CC=CC=CC=CC(OC3OC(C)C(O)C(N)C3O)CC1O2 (mixture of isomers) [FX] | 0.313 µM |
| CC1C=CC=CC=CC=CC=CC=CC=CC(OC2OC(C)C(O)C(N)C2O)CC2OC(O)(CC(O)CC(O)C(O)CCC(O)CC(O)CC(=O)OC(C)C(C)C1O)CC(O)C2C(=O)NC1C(O)COC(O)C1O (mixture of isomers) [GE] | 0.320 µM |
| CC1C=CC=CC=CC=CC=CC=CC=CC(OC2OC(C)C(O)C(N)C2O)CC2OC(O)(CC(O)CC(O)C(O)CCC(O)CC(O)CC(=O)OC(C)C(C)C1O)CC(O)C2C(=O)NC1C(O)OC(CO)C(O)C1O (mixture of isomers) [GL] | 0.344 µM |
| CC1C=CC=CC=CC=CC=CC=CC=CC(OC2OC(C)C(O)C(N)C2O)CC2OC(O)(CC(O)CC(O)C(O)CCC(O)CC(O)CC(=O)OC(C)C(C)C1O)CC(O)C2C(=O)NCCN(C)C (centres unmarked) [DA] | 0.352 µM |
| CC1C=CC=CC=CC=CC=CC=CC=CC(OC2OC(C)C(O)C(N)C2O)CC2OC(O)(CC(O)CC(O)C(O)CCC(O)CC(O)CC(=O)OC(C)C(C)C1O)CC(O)C2C(=O)NC(CO)CO (centres unmarked) [DD] | 0.375 µM |
| CC1C=CC=CC=CC=CC=CC=CC=CC(OC2OC(C)C(O)C(N)C2O)CC2OC(O)(CC(O)CC(O)C(O)CCC(O)CC(O)CC(=O)OC(C)C(C)C1O)CC(O)C2C(=O)NCC1OC(n2cnc3c(=O)[nH]c(N)nc32)C(O)C1O (centres unmarked) [DM] | 0.391 µM |
| CC1C=CC=CC=CC=CC=CC=CC=CC(OC2OC(C)C(O)C(N)C2O)CC2OC(O)(CC(O)CC(O)C(O)CCC(O)CC(O)CC(=O)OC(C)C(C)C1O)CC(O)C2C(=O)NCCn1ncnn1 (centres unmarked) [DN] | 0.391 µM |
| CC1C=CC=CC=CC=CC=CC=CC=CC(OC2OC(C)C(O)C(N)C2O)CC2OC(O)(CC(O)CC(O)C(O)CCC(O)CC(O)CC(=O)OC(C)C(C)C1O)CC(O)C2C(=O)NCCOCCN (centres unmarked) [DP] | 0.391 µM |
| COC(=O)C(CCCNC(=N)N)NC(=O)C1C(O)CC2(O)CC(O)CC(O)C(O)CCC(O)CC(O)CC(=O)OC(C)C(C)C(O)C(C)C=CC=CC=CC=CC=CC=CC=CC(OC3OC(C)C(O)C(N)C3O)CC1O2 (centres unmarked) [DQ] | 0.406 µM |
| CC1C=CC=CC=CC=CC=CC=CC=CC(OC2OC(C)C(O)C(N)C2O)CC2OC(O)(CC(O)CC(O)C(O)CCC(O)CC(O)CC(=O)OC(C)C(C)C1O)CC(O)C2C(=O)NC1CCC(N)CC1 (centres unmarked) [DU] | 0.406 µM |
| CC1C=CC=CC=CC=CC=CC=CC=CC(OC2OC(C)C(O)C(N)C2O)CC2OC(O)(CC(O)CC(O)C(O)CCC(O)CC(O)CC(=O)OC(C)C(C)C1O)CC(O)C2C(=O)NCCNC(=N)N (centres unmarked) [DV] | 0.406 µM |
| CC1C=CC=CC=CC=CC=CC=CC=CC(OC2OC(C)C(O)C(N)C2O)CC2OC(O)(CC(O)CC(O)C(O)CCC(O)CC(O)CC(=O)OC(C)C(C)C1O)CC(O)C2C(=O)N(CO)CCO (centres unmarked) [DW] | 0.419 µM |
| CC1C=CC=CC=CC=CC=CC=CC=CC(OC2OC(C)C(O)C(N)C2O)CC2OC(O)(CC(O)CC(O)C(O)CCC(O)CC(O)CC(=O)OC(C)C(C)C1O)CC(O)C2C(=O)NC1COC1 (centres unmarked) [DX] | 0.422 µM |

| Structure (SMILES) | MIC (Average Minimum Inhibition Concentration) |
| --- | --- |
| CC1C=CC=CC=CC=CC=CC=CC=CC(OC2OC(C)C(O)C(N)C2O)CC2OC(O)(CC(O)CC(O)C(O)CCC(O)CC(O)CC(=O)OC(C)C(C)C1O)CC(O)C2C(=O)NCC(C)(C)C(N)=O (centres unmarked) [EC] | 0.422 µM |
| CC1C=CC=CC=CC=CC=CC=CC=CC(OC2OC(C)C(O)C(N)C2O)CC2OC(O)(CC(O)CC(O)C(O)CCC(O)CC(O)CC(=O)OC(C)C(C)C1O)CC(O)C2C(=O)NCCS(C)(=O)=O (centres unmarked) [EE] | 0.422 µM |
| CC1C=CC=CC=CC=CC=CC=CC=CC(OC2OC(C)C(O)C(N)C2O)CC2OC(O)(CC(O)CC(O)C(O)CCC(O)CC(O)CC(=O)OC(C)C(C)C1O)CC(O)C2C(=O)NCC1OC(O)C(O)C(O)C1O (centres unmarked) [EF] | 0.430 µM |
| CC1C=CC=CC=CC=CC=CC=CC=CC(OC2OC(C)C(O)C(N)C2O)CC2OC(O)(CC(O)CC(O)C(O)CCC(O)CC(O)CC(=O)OC(C)C(C)C1O)CC(O)C2C(=O)NCB(O)O (centres unmarked) [EG] | 0.430 µM |
| CC1C=CC=CC=CC=CC=CC=CC=CC(OC2OC(C)C(O)C(N)C2O)CC2OC(O)(CC(O)CC(O)C(O)CCC(O)CC(O)CC(=O)OC(C)C(C)C1O)CC(O)C2C(=O)NC1CC1 (centres unmarked) [EI] | 0.438 µM |
| CC1C=CC=CC=CC=CC=CC=CC=CC(OC2OC(C)C(O)C(N)C2O)CC2OC(O)(CC(O)CC(O)C(O)CCC(O)CC(O)CC(=O)OC(C)C(C)C1O)CC(O)C2C(=O)NCCC#N (centres unmarked) [EK] | 0.438 µM |
| C=CCNC(=O)C1C(O)CC2(O)CC(O)CC(O)C(O)CCC(O)CC(O)CC(=O)OC(C)C(C)C(O)C(C)C=CC=CC=CC=CC=CC=CC=CC(OC3OC(C)C(O)C(N)C3O)CC1O2 (centres unmarked) [EL] | 0.453 µM |
| COCC(C)NC(=O)C1C(O)CC2(O)CC(O)CC(O)C(O)CCC(O)CC(O)CC(=O)OC(C)C(C)C(O)C(C)C=CC=CC=CC=CC=CC=CC=CC(OC3OC(C)C(O)C(N)C3O)CC1O2 (centres unmarked) [EM] | 0.469 µM |
| CC1C=CC=CC=CC=CC=CC=CC=CC(OC2OC(C)C(O)C(N)C2O)CC2OC(O)(CC(O)CC(O)C(O)CCC(O)CC(O)CC(=O)OC(C)C(C)C1O)CC(O)C2C(=O)NCC(C)(C)F (centres unmarked) [EN] | 0.469 µM |
| CC1C=CC=CC=CC=CC=CC=CC=CC(OC2OC(C)C(O)C(N)C2O)CC2OC(O)(CC(O)CC(O)C(O)CCC(O)CC(O)CC(=O)OC(C)C(C)C1O)CC(O)C2C(=O)NCCNS(C)(=O)=O (centres unmarked) [EO] | 0.469 µM |
| CC1C=CC=CC=CC=CC=CC=CC=CC(OC2OC(C)C(O)C(N)C2O)CC2OC(O)(CC(O)CC(O)C(O)CCC(O)CC(O)CC(=O)OC(C)C(C)C1O)CC(O)C2C(=O)NCCCS(N)(=O)=O (centres unmarked) [EP] | 0.484 µM |
| CC1C=CC=CC=CC=CC=CC=CC=CC(OC2OC(C)C(O)C(N)C2O)CC2OC(O)(CC(O)CC(O)C(O)CCC(O)CC(O)CC(=O)OC(C)C(C)C1O)CC(O)C2C(=O)NCCCNC(N)=O (centres unmarked) [EQ] | 0.484 µM |
| CC1C=CC=CC=CC=CC=CC=CC=CC(OC2OC(C)C(O)C(N)C2O)CC2OC(O)(CC(O)CC(O)C(O)CCC(O)CC(O)CC(=O)OC(C)C(C)C1O)CC(O)C2C(=O)NCCN1CCOC1=O (centres unmarked) [ER] | 0.484 µM |
| CC1C=CC=CC=CC=CC=CC=CC=CC(OC2OC(C)C(O)C(N)C2O)CC2OC(O)(CC(O)CC(O)C(O)CCC(O)CC(O)CC(=O)OC(C)C(C)C1O)CC(O)C2C(=O)NC1CNC1=O (centres unmarked) [ES] | 0.484 µM |
| CC1C=CC=CC=CC=CC=CC=CC=CC(OC2OC(C)C(O)C(N)C2O)CC2OC(O)(CC(O)CC(O)C(O)CCC(O)CC(O)CC(=O)OC(C)C(C)C1O)CC(O)C2C(=O)NC1COCC1O (centres unmarked) [EU] | 0.500 µM |
| CC1C=CC=CC=CC=CC=CC=CC=CC(OC2OC(C)C(O)C(N)C2O)CC2OC(O)(CC(O)CC(O)C(O)CCC(O)CC(O)CC(=O)OC(C)C(C)C1O)CC(O)C2C(=O)NCCOC(F)F (centres unmarked) [EW] | 0.500 µM |
| CC1C=CC=CC=CC=CC=CC=CC=CC(OC2OC(C)C(O)C(N)C2O)CC2OC(O)(CC(O)CC(O)C(O)CCC(O)CC(O)CC(=O)OC(C)C(C)C1O)CC(O)C2C(=O)NCCCCO (centres unmarked) [EY] | 0.500 µM |

Same assay, conditions: Table 12, C16 amides of C2'epiAmB

| Structure (SMILES) | Average MIC |
| --- | --- |
| CC1C=CC=CC=CC=CC=CC=CC=CC(OC2OC(C)C(O)C(N)C2O)CC2OC(O)(CC(O)CC(O)C(O)CCC(O)CC(O)CC(=O)OC(C)C(C)C1O)CC(O)C2C(=O)NC1COCC1O (centres unmarked) [BP] | 1.250 µM |
| CNC(=O)C1C(O)CC2(O)CC(O)CC(O)C(O)CCC(O)CC(O)CC(=O)OC(C)C(C)C(O)C(C)C=CC=CC=CC=CC=CC=CC=CC(OC3OC(C)C(O)C(N)C3O)CC1O2 (centres unmarked) [BS] | 1.734 µM |
| CC1C=CC=CC=CC=CC=CC=CC=CC(OC2OC(C)C(O)C(N)C2O)CC2OC(O)(CC(O)CC(O)C(O)CCC(O)CC(O)CC(=O)OC(C)C(C)C1O)CC(O)C2C(=O)NCCN (centres unmarked) [BT] | 1.750 µM |
| CC1C=CC=CC=CC=CC=CC=CC=CC(OC2OC(C)C(O)C(N)C2O)CC2OC(O)(CC(O)CC(O)C(O)CCC(O)CC(O)CC(=O)OC(C)C(C)C1O)CC(O)C2C(=O)NCCC(N)=O (centres unmarked) [BU] | 2.563 µM |
| CC1C=CC=CC=CC=CC=CC=CC=CC(OC2OC(C)C(O)C(N)C2O)CC2OC(O)(CC(O)CC(O)C(O)CCC(O)CC(O)CC(=O)OC(C)C(C)C1O)CC(O)C2C(=O)NC1CC1 (centres unmarked) [BV] | 3.063 µM |
| CC1C=CC=CC=CC=CC=CC=CC=CC(OC2OC(C)C(O)C(N)C2O)CC2OC(O)(CC(O)CC(O)C(O)CCC(O)CC(O)CC(=O)OC(C)C(C)C1O)CC(O)C2C(=O)NC1CCC1 (centres unmarked) [BW] | 5.563 µM |
| COC(=O)C(Cc1c[nH]cn1)NC(=O)C1C(O)CC2(O)CC(O)CC(O)C(O)CCC(O)CC(O)CC(=O)OC(C)C(C)C(O)C(C)C=CC=CC=CC=CC=CC=CC=CC(OC3OC(C)C(O)C(N)C3O)CC1O2 (centres unmarked) [BX] | 9.073 µM |
